Results from the kinase profiling compilation of Christmann-Franck et al. (2016).

Assays:
Experiment in all cases: radiometric filter-binding kinase assay
EIF2AK3 (human) = EIF2AK3 (human) (UniProt Q9NZJ5)
PRKCG (human) = PRKCG (human) (UniProt P05129)
SIK3 (human) = SIK3 (human) (UniProt Q9Y2K2)
[1] = system: TGFBR1 (human), P36897 [T204D]
IRAK1 (human) = IRAK1 (human) (UniProt P51617)
CDK9 CCNT1 (human) = CDK9 CCNT1 (human) (UniProt P50750+O60563)
STK33 (human) = STK33 (human) (UniProt Q9BYT3)
PDGFRA (human) = PDGFRA (human) (UniProt P16234)
CSNK1G2 (human) = CSNK1G2 (human) (UniProt P78368)
TSSK1B (human) = TSSK1B (human) (UniProt Q9BXA7)
[2] = biological target: PRKAA1 PRKAB2 PRKAG1 (human) (UniProt O43741+Q13131+P54619)
[3] = system: OXSR1 (human), O95747 [T185E]
ULK1 (human) = ULK1 (human) (UniProt O75385)
SIK2 (human) = SIK2 (human) (UniProt Q9H0K1)
ULK2 (human) = ULK2 (human) (UniProt Q8IYT8)
STK16 (human) = STK16 (human) (UniProt O75716)
TESK1 (human) = TESK1 (human) (UniProt Q15569)
TTBK1 (human) = TTBK1 (human) (UniProt Q5TCY1)
ZAP70 (human) = ZAP70 (human) (UniProt P43403)
MAP4K3 (human) = MAP4K3 (human) (UniProt Q8IVH8)
DDR2 (human) = DDR2 (human) (UniProt Q16832)
STK24 (human) = STK24 (human) (UniProt Q9Y6E0)
TTBK2 (human) = TTBK2 (human) (UniProt Q6IQ55)
PTK6 (human) = PTK6 (human) (UniProt Q13882)
ABL1 (human) = ABL1 (human) (UniProt P00519)
PAK6 (human) = PAK6 (human) (UniProt Q9NQU5)
TEK (human) = TEK (human) (UniProt Q02763)
MAP4K5 (human) = MAP4K5 (human) (UniProt Q9Y4K4)
MAPK11 (human) = MAPK11 (human) (UniProt Q15759)
MAPK7 (human) = MAPK7 (human) (UniProt Q13164)
WNK1 (human) = WNK1 (human) (UniProt Q9H4A3)
TLK1 (human) = TLK1 (human) (UniProt Q9UKI8)
TLK1 (human), sequence (Q9UKI8 whole entry, looked up): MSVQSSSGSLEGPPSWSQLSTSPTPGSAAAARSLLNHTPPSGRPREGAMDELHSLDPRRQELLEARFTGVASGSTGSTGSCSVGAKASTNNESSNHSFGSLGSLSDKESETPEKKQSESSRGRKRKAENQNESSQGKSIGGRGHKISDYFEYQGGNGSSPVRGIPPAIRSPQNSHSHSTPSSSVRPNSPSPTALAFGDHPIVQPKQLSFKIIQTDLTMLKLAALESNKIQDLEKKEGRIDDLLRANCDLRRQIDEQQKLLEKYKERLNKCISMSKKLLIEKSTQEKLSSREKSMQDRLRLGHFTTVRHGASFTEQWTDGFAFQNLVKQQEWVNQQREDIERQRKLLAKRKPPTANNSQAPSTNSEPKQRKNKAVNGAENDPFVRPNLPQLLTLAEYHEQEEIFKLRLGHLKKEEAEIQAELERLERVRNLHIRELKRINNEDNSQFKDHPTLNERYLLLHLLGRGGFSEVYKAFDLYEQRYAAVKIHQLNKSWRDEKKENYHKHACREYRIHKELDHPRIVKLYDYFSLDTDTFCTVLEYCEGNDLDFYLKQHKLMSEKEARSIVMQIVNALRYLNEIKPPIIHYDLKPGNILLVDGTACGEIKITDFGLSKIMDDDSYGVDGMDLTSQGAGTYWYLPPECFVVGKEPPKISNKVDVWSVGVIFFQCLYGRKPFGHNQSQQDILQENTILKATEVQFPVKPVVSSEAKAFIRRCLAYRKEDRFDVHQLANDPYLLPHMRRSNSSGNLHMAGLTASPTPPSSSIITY

MAPK11 (human), sequence (Q15759 whole entry, looked up): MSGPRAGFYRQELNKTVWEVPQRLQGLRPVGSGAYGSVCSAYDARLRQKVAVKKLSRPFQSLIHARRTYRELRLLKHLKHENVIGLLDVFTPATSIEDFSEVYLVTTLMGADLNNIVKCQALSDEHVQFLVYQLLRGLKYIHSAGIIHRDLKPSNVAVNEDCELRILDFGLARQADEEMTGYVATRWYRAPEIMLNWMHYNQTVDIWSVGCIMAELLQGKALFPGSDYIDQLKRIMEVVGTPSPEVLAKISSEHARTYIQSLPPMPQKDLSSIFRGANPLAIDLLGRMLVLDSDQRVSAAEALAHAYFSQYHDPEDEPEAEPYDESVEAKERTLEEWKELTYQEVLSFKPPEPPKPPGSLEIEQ
SIK3 (human), sequence (Q9Y2K2 whole entry, looked up): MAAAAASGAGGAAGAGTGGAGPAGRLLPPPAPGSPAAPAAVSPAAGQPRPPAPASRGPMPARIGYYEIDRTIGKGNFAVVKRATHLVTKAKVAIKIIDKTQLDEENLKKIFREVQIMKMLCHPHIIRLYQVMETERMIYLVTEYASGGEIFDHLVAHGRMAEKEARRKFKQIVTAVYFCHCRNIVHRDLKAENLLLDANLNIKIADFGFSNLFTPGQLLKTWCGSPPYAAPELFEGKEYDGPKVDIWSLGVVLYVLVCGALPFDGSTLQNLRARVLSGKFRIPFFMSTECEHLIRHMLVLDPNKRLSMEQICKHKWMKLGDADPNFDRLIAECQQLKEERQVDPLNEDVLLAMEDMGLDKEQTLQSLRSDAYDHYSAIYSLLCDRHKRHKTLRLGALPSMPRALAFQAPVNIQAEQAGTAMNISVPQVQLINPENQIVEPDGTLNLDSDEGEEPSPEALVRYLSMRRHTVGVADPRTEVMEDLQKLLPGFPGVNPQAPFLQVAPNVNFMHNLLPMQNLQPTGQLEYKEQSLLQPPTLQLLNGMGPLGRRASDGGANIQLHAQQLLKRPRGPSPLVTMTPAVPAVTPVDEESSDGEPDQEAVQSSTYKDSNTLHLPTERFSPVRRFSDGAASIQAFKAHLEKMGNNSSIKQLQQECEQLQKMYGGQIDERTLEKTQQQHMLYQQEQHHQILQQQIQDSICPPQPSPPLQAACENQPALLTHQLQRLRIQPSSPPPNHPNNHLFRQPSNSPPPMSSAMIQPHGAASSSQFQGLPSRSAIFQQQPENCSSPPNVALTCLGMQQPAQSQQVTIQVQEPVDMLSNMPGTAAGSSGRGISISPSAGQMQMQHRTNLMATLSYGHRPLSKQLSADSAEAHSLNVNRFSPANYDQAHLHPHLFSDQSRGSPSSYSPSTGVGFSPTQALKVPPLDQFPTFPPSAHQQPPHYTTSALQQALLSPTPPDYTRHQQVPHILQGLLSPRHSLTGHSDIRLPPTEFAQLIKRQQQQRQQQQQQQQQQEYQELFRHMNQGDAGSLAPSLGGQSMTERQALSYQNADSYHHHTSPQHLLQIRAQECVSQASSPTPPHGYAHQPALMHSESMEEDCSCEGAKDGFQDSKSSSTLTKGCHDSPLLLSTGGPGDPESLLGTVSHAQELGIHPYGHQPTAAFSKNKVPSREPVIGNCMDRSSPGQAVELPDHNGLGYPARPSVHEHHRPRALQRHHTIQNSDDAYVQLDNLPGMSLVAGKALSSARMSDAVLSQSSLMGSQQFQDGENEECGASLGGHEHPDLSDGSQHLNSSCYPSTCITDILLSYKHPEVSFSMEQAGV
PTK6 (human), sequence (Q13882 whole entry, looked up): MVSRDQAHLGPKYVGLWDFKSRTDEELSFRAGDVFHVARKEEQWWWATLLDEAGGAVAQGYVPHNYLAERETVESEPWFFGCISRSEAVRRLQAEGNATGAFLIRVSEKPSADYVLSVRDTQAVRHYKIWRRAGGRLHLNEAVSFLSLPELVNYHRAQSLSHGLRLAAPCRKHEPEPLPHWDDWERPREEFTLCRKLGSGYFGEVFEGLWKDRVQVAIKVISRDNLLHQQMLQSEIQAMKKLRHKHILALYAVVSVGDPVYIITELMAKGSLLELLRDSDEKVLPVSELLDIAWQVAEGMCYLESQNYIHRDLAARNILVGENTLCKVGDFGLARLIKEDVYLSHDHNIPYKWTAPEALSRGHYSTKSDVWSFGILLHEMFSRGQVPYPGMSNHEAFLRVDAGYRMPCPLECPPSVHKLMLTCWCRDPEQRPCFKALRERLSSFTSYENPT
TESK1 (human), sequence (Q15569 whole entry, looked up): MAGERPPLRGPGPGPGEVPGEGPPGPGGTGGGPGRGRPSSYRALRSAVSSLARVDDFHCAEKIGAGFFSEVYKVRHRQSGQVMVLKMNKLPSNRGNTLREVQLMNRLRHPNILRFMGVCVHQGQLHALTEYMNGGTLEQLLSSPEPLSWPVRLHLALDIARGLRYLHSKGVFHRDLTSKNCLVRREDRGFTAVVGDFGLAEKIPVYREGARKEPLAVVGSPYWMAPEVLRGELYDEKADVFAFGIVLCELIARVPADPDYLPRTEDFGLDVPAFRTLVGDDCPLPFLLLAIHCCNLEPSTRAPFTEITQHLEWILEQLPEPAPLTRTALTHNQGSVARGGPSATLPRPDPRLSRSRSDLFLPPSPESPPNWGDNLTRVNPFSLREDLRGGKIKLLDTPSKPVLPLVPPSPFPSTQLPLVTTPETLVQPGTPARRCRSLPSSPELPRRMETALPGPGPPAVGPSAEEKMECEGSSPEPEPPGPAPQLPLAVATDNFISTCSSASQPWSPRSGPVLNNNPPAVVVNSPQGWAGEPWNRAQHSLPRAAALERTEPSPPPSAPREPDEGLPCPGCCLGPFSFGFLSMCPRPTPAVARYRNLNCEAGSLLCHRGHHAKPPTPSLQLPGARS
ZAP70 (human), sequence (P43403 whole entry, looked up): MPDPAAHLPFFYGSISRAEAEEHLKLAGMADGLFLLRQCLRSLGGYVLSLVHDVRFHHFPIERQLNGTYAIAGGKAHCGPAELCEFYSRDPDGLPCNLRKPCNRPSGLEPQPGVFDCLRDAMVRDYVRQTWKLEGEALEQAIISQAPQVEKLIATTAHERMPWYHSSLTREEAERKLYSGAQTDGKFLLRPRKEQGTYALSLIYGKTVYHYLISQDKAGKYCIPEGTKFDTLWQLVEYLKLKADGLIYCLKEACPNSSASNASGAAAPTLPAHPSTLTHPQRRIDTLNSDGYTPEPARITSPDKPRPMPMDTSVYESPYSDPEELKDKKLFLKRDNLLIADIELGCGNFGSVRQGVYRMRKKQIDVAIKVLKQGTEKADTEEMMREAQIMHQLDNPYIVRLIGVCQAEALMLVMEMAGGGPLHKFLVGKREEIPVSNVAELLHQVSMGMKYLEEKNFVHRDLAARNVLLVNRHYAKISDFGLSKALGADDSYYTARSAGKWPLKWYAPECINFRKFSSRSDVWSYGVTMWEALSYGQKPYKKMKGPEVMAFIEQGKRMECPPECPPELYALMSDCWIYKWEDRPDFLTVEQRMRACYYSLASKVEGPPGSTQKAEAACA

residual activity (EIF2AK3 (human); compound 0.01 µM): 62%
residual activity (EIF2AK3 (human); compound 0.1 µM): 59%
residual activity (EIF2AK3 (human); compound 1.0 µM): 36%
residual activity (PRKCG (human); compound 0.01 µM): 95%
residual activity (PRKCG (human); compound 0.1 µM): 51%
residual activity (PRKCG (human); compound 1.0 µM): 13%
residual activity (SIK3 (human); compound 0.01 µM): 31%
residual activity (SIK3 (human); compound 0.1 µM): 7%
residual activity (SIK3 (human); compound 1.0 µM): 2%
residual activity ([1]; compound 0.01 µM): 96%
residual activity ([1]; compound 0.1 µM): 74%
residual activity ([1]; compound 1.0 µM): 17%
residual activity (IRAK1 (human); compound 0.01 µM): 15%
residual activity (IRAK1 (human); compound 0.1 µM): 2%
residual activity (IRAK1 (human); compound 1.0 µM): 3%
residual activity (CDK9 CCNT1 (human); compound 0.01 µM): 61%
residual activity (CDK9 CCNT1 (human); compound 0.1 µM): 17%
residual activity (CDK9 CCNT1 (human); compound 1.0 µM): 15%
residual activity (STK33 (human); compound 0.01 µM): 44%
residual activity (STK33 (human); compound 0.1 µM): 27%
residual activity (STK33 (human); compound 1.0 µM): 23%
residual activity (PDGFRA (human); compound 0.01 µM): 54%
residual activity (PDGFRA (human); compound 0.1 µM): 8%
residual activity (PDGFRA (human); compound 1.0 µM): 2%
residual activity (CSNK1G2 (human); compound 0.01 µM): 106%
residual activity (CSNK1G2 (human); compound 0.1 µM): 97%
residual activity (CSNK1G2 (human); compound 1.0 µM): 86%
residual activity (TSSK1B (human); compound 0.01 µM): 13%
residual activity (TSSK1B (human); compound 0.1 µM): 5%
residual activity (TSSK1B (human); compound 1.0 µM): 4%
residual activity ([2]; compound 0.01 µM): 4%
residual activity ([2]; compound 0.1 µM): 3%
residual activity ([2]; compound 1.0 µM): 1%
residual activity ([3]; compound 0.01 µM): 75%
residual activity ([3]; compound 0.1 µM): 23%
residual activity ([3]; compound 1.0 µM): 7%
residual activity (ULK1 (human); compound 0.01 µM): 102%
residual activity (ULK1 (human); compound 0.1 µM): 43%
residual activity (ULK1 (human); compound 1.0 µM): 11%
residual activity (SIK2 (human); compound 0.01 µM): 4%
residual activity (SIK2 (human); compound 0.1 µM): 0%
residual activity (SIK2 (human); compound 1.0 µM): 1%
residual activity (ULK2 (human); compound 0.01 µM): 30%
residual activity (ULK2 (human); compound 0.1 µM): 5%
residual activity (ULK2 (human); compound 1.0 µM): 1%
residual activity (STK16 (human); compound 0.01 µM): 102%
residual activity (STK16 (human); compound 0.1 µM): 85%
residual activity (STK16 (human); compound 1.0 µM): 69%
residual activity (TESK1 (human); compound 0.01 µM): 76%
residual activity (TESK1 (human); compound 0.1 µM): 19%
residual activity (TESK1 (human); compound 1.0 µM): 2%
residual activity (TTBK1 (human); compound 0.01 µM): 101%
residual activity (TTBK1 (human); compound 0.1 µM): 108%
residual activity (TTBK1 (human); compound 1.0 µM): 99%
residual activity (ZAP70 (human); compound 0.01 µM): 83%
residual activity (ZAP70 (human); compound 0.1 µM): 16%
residual activity (ZAP70 (human); compound 1.0 µM): 2%
residual activity (MAP4K3 (human); compound 0.01 µM): 3%
residual activity (MAP4K3 (human); compound 0.1 µM): 2%
residual activity (MAP4K3 (human); compound 1.0 µM): 1%
residual activity (DDR2 (human); compound 0.1 µM): 8%
residual activity (DDR2 (human); compound 1.0 µM): 3%
residual activity (STK24 (human); compound 0.01 µM): 97%
residual activity (STK24 (human); compound 0.1 µM): 50%
residual activity (STK24 (human); compound 1.0 µM): 6%
residual activity (TTBK2 (human); compound 0.01 µM): 107%
residual activity (TTBK2 (human); compound 0.1 µM): 102%
residual activity (TTBK2 (human); compound 1.0 µM): 90%
residual activity (PTK6 (human); compound 0.01 µM): 28%
residual activity (PTK6 (human); compound 0.1 µM): 16%
residual activity (PTK6 (human); compound 1.0 µM): 4%
residual activity (ABL1 (human); compound 0.01 µM): 98%
residual activity (ABL1 (human); compound 0.1 µM): 82%
residual activity (ABL1 (human); compound 1.0 µM): 37%
residual activity (PAK6 (human); compound 0.01 µM): 29%
residual activity (PAK6 (human); compound 0.1 µM): 2%
residual activity (PAK6 (human); compound 1.0 µM): 1%
residual activity (TEK (human); compound 0.01 µM): 59%
residual activity (TEK (human); compound 0.1 µM): 41%
residual activity (TEK (human); compound 1.0 µM): 20%
residual activity (MAP4K5 (human); compound 0.01 µM): 10%
residual activity (MAP4K5 (human); compound 0.1 µM): 7%
residual activity (MAP4K5 (human); compound 1.0 µM): 4%
residual activity (MAPK11 (human); compound 0.01 µM): 108%
residual activity (MAPK11 (human); compound 0.1 µM): 96%
residual activity (MAPK11 (human); compound 1.0 µM): 79%
residual activity (MAPK7 (human); compound 0.01 µM): 66%
residual activity (MAPK7 (human); compound 0.1 µM): 24%
residual activity (MAPK7 (human); compound 1.0 µM): 12%
residual activity (WNK1 (human); compound 0.1 µM): 91%
residual activity (WNK1 (human); compound 1.0 µM): 86%
residual activity (TLK1 (human); compound 0.01 µM): 93%
residual activity (TLK1 (human); compound 0.1 µM): 39%
residual activity (TLK1 (human); compound 1.0 µM): 6%
SMILES: CNC(=O)C1[C@H]2O[C@@](C)([C@@H]1N)n1c3ccccc3c3c4c(c5c6ccccc6n2c5c31)C(=O)NC4 (some centres undefined)
